{
  "source": "paper PMC11604427",
  "about": "(Frontiers in Pharmacology, 2024)",
  "key": {"Hep3B": {"tested_on": "Hep3B", "experiment": "MTT assay", "format": "cell-based", "conditions": "Homo sapiens, 48 h, read-out: IC50 (μM) ± SD Hep3B", "procedure": "(§1) Cells at a density of 4×10^3 cells/well were inoculated into 96-well plates for overnight culture at 37°C. […] Then, 100 μL of a 0.5 mg/mL MTT solution was pipetted into each well, and the incubation was prolonged for 4 h, resulting in the formation of a purple precipitate. Afterward, 200 μL of DMSO was added to each well, and the plate was vortexed for 10 min. The absorbance at 570 nm was determined with a Synergy 4 microplate reader (BioTek, United States). Each experiment was performed three times under the same conditions."}, "HepG2/MDR": {"tested_on": "HepG2/MDR", "experiment": "MTT assay", "format": "cell-based", "conditions": "Homo sapiens, multidrug-resistant HepG2/MDR, 48 h, read-out: IC50 (μM) ± SD HepG2/MDR", "procedure": "as §1"}, "HepG2": {"tested_on": "HepG2", "experiment": "MTT assay", "format": "cell-based", "conditions": "Homo sapiens, HepG2, 48 h, read-out: IC50 (μM) ± SD HepG2", "procedure": "as §1"}, "Huh7": {"tested_on": "Huh7", "experiment": "MTT assay", "format": "cell-based", "conditions": "Homo sapiens, Huh-7, Huh7, 48 h, read-out: IC50 (μM) ± SD Huh7", "procedure": "as §1"}, "SNU449": {"tested_on": "SNU449", "experiment": "MTT assay", "format": "cell-based", "conditions": "Homo sapiens, SNU-449, SNU449, 48 h, read-out: IC50 (μM) ± SD SNU449", "procedure": "as §1"}, "[1]": {"tested_on": "normal human liver cell line L02", "experiment": "MTT assay", "format": "cell-based", "conditions": "normal liver cell line L02, 48 h", "procedure": "as §1"}, "63 distinct kinases": {"target": "63 distinct kinases", "experiment": "SelectScreen kinase selectivity assay, whole panel", "format": "biochemical", "conditions": "read-out: IC50 values for each of the 63 kinases", "procedure": "(§2) The kinase selectivity analysis of PKHD-5 was performed using the SelectScreen kinase analysis service provided by Thermo Fisher Scientific. The experiment initially involved the preparation of a series of inhibitor solutions at varying concentrations, which were then reacted with various kinase targets under standardized conditions to calculate the percentage inhibition for each test solution. Ultimately, the IC50 values were calculated based on the concentration-inhibition curves by fitting a four-parameter logistic curve, thereby assessing the potency and selectivity of the inhibitors. The analysis results are detailed in Supplementary Table S1."}, "ABL1": {"target": "T1, ABL1 (Homo sapiens, UniProt P00519)", "T1 construct": "purchased Thermo Fisher Scientific (SelectScreen service)", "experiment": "SelectScreen kinase selectivity assay", "format": "biochemical", "procedure": "as §2"}, "BMX": {"target": "T2, BMX (Homo sapiens, UniProt P51813)", "T2 construct": "purchased Thermo Fisher Scientific (SelectScreen service)", "experiment": "SelectScreen kinase selectivity assay", "format": "biochemical", "procedure": "as §2"}, "DDR2": {"target": "T3, DDR2 (Homo sapiens, UniProt Q16832)", "T3 construct": "purchased Thermo Fisher Scientific (SelectScreen service)", "experiment": "SelectScreen kinase selectivity assay", "format": "biochemical", "procedure": "as §2"}, "EPHA5": {"target": "T4, EPHA5 (Homo sapiens, UniProt P54756)", "T4 construct": "purchased Thermo Fisher Scientific (SelectScreen service)", "experiment": "SelectScreen kinase selectivity assay", "format": "biochemical", "procedure": "as §2"}, "EPHA6": {"target": "T5, EPHA6 (Homo sapiens, UniProt Q9UF33)", "T5 construct": "purchased Thermo Fisher Scientific (SelectScreen service)", "experiment": "SelectScreen kinase selectivity assay", "format": "biochemical", "procedure": "as §2"}, "EPHB2": {"target": "T6, EPHB2 (Homo sapiens, UniProt P29323)", "T6 construct": "purchased Thermo Fisher Scientific (SelectScreen service)", "T6 sequence (P29323 19-1055)": "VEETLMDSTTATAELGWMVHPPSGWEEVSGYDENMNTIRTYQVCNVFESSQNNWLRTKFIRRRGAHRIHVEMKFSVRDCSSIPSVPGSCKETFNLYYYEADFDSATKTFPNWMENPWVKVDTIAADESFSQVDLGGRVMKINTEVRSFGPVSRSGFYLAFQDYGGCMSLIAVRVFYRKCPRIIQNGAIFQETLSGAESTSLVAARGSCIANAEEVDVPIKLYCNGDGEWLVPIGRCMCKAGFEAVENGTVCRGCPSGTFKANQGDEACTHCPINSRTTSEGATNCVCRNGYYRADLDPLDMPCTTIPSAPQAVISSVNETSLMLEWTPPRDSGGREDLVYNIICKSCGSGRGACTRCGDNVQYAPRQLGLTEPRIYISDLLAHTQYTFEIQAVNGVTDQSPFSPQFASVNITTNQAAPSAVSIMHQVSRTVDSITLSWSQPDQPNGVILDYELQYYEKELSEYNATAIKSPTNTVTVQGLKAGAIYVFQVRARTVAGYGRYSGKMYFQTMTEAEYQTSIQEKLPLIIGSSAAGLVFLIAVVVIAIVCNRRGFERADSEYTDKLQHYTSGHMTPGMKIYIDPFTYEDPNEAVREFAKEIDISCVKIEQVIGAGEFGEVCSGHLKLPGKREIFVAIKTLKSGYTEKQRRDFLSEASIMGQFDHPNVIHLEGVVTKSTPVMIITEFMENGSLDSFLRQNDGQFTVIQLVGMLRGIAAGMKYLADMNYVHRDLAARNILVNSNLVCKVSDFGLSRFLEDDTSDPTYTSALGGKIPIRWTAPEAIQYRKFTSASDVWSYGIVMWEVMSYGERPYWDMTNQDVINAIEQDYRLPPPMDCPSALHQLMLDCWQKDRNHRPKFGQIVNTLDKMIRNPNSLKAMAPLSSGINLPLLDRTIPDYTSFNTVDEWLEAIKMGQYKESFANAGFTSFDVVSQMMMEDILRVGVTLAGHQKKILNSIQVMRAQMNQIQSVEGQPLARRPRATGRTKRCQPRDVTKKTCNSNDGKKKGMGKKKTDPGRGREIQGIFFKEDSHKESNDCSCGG", "experiment": "SelectScreen kinase selectivity assay", "format": "biochemical", "procedure": "as §2"}, "ERBB4": {"target": "T7, ERBB4 (Homo sapiens, UniProt Q15303)", "T7 construct": "purchased Thermo Fisher Scientific (SelectScreen service)", "experiment": "SelectScreen kinase selectivity assay", "format": "biochemical", "procedure": "as §2"}, "FES": {"target": "T8, FES (Homo sapiens, UniProt P07332)", "T8 construct": "purchased Thermo Fisher Scientific (SelectScreen service)", "experiment": "SelectScreen kinase selectivity assay", "format": "biochemical", "procedure": "as §2"}, "FGFR1": {"target": "T9, FGFR1 (Homo sapiens, UniProt P11362)", "T9 construct": "purchased Thermo Fisher Scientific (SelectScreen service)", "experiment": "SelectScreen kinase selectivity assay", "format": "biochemical", "procedure": "as §2"}, "FGFR3": {"target": "T10, FGFR3 (Homo sapiens, UniProt P22607)", "T10 construct": "purchased Thermo Fisher Scientific (SelectScreen service)", "experiment": "SelectScreen kinase selectivity assay", "format": "biochemical", "procedure": "as §2"}, "FGR": {"target": "T11, FGR (Homo sapiens, UniProt P09769)", "T11 construct": "purchased Thermo Fisher Scientific (SelectScreen service)", "experiment": "SelectScreen kinase selectivity assay", "format": "biochemical", "procedure": "as §2"}, "FYN": {"target": "T12, FYN (Homo sapiens, UniProt P06241)", "T12 construct": "purchased Thermo Fisher Scientific (SelectScreen service)", "experiment": "SelectScreen kinase selectivity assay", "format": "biochemical", "procedure": "as §2"}, "ITK": {"target": "T13, ITK (Homo sapiens, UniProt Q08881)", "T13 construct": "purchased Thermo Fisher Scientific (SelectScreen service)", "experiment": "SelectScreen kinase selectivity assay", "format": "biochemical", "procedure": "as §2"}, "JAK1": {"target": "T14, JAK1 (Homo sapiens, UniProt P23458)", "T14 construct": "purchased Thermo Fisher Scientific (SelectScreen service)", "experiment": "SelectScreen kinase selectivity assay", "format": "biochemical", "procedure": "as §2"}, "JAK2": {"target": "T15, JAK2 (Homo sapiens, UniProt O60674)", "T15 construct": "purchased Thermo Fisher Scientific (SelectScreen service)", "experiment": "SelectScreen kinase selectivity assay", "format": "biochemical", "procedure": "as §2"}, "JAK3": {"target": "T16, JAK3 (Homo sapiens, UniProt P52333)", "T16 construct": "purchased Thermo Fisher Scientific (SelectScreen service)", "experiment": "SelectScreen kinase selectivity assay", "format": "biochemical", "procedure": "as §2"}, "KIT": {"target": "T17, KIT (Homo sapiens, UniProt P10721)", "T17 construct": "purchased Thermo Fisher Scientific (SelectScreen service)", "experiment": "SelectScreen kinase selectivity assay", "format": "biochemical", "procedure": "as §2"}, "LTK": {"target": "T18, LTK (Homo sapiens, UniProt P29376)", "T18 construct": "purchased Thermo Fisher Scientific (SelectScreen service)", "experiment": "SelectScreen kinase selectivity assay", "format": "biochemical", "procedure": "as §2"}, "MET": {"target": "T19, MET (Homo sapiens, UniProt P08581)", "T19 construct": "purchased Thermo Fisher Scientific (SelectScreen service)", "experiment": "SelectScreen kinase selectivity assay", "format": "biochemical", "procedure": "as §2"}, "MST1R": {"target": "T20, MST1R (Homo sapiens, UniProt Q04912)", "T20 construct": "purchased Thermo Fisher Scientific (SelectScreen service)", "experiment": "SelectScreen kinase selectivity assay", "format": "biochemical", "procedure": "as §2"}, "MUSK": {"target": "T21, MUSK (Homo sapiens, UniProt O15146)", "T21 construct": "purchased Thermo Fisher Scientific (SelectScreen service)", "T21 sequence (O15146 24-869)": "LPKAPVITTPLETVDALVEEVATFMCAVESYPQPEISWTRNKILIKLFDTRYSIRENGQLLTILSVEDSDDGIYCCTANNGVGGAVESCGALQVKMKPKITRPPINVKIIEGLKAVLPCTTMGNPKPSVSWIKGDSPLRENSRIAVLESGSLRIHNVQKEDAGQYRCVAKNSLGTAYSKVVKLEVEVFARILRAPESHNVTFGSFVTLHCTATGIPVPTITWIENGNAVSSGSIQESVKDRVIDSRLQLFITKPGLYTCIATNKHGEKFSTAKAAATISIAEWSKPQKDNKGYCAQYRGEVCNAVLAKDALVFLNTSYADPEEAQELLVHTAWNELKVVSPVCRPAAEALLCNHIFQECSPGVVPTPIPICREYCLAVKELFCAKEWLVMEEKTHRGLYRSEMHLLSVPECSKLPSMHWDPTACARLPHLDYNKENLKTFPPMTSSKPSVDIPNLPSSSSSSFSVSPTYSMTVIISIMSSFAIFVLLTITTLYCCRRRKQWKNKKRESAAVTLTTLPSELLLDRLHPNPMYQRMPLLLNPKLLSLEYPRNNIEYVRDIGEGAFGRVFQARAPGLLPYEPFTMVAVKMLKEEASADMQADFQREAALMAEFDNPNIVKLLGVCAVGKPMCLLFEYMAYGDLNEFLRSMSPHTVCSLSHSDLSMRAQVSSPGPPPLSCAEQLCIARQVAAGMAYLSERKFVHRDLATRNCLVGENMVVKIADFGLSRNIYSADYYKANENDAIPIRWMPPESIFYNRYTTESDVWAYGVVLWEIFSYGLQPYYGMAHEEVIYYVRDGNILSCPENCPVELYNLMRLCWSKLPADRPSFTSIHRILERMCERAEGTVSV", "experiment": "SelectScreen kinase selectivity assay", "format": "biochemical", "procedure": "as §2"}, "NTRK2": {"target": "T22, NTRK2 (Homo sapiens, UniProt Q16620)", "T22 construct": "purchased Thermo Fisher Scientific (SelectScreen service)", "T22 sequence (Q16620 32-822)": "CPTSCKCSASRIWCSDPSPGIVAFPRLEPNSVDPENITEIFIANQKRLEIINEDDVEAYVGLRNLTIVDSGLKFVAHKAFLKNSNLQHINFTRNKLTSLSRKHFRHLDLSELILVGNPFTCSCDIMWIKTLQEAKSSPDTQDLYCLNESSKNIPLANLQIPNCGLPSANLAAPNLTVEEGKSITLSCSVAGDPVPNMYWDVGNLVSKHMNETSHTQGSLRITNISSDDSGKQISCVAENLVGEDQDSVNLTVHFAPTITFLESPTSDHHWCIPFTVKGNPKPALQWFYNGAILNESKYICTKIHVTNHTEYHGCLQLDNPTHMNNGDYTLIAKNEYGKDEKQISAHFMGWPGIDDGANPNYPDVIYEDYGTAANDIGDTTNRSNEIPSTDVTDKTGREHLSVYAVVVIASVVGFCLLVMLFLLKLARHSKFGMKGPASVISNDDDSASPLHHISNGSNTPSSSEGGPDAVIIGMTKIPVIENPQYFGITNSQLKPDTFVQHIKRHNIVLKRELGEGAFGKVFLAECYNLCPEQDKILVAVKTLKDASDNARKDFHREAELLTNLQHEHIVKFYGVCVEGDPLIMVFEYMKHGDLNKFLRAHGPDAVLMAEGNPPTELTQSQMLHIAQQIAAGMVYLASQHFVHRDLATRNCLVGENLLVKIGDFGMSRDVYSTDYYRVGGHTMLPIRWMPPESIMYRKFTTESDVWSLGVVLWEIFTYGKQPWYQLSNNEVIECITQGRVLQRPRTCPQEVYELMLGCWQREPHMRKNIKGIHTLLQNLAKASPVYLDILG", "experiment": "SelectScreen kinase selectivity assay", "format": "biochemical", "procedure": "as §2"}, "NTRK3": {"target": "T23, NTRK3 (Homo sapiens, UniProt Q16288)", "T23 construct": "purchased Thermo Fisher Scientific (SelectScreen service)", "T23 sequence (Q16288 32-839)": "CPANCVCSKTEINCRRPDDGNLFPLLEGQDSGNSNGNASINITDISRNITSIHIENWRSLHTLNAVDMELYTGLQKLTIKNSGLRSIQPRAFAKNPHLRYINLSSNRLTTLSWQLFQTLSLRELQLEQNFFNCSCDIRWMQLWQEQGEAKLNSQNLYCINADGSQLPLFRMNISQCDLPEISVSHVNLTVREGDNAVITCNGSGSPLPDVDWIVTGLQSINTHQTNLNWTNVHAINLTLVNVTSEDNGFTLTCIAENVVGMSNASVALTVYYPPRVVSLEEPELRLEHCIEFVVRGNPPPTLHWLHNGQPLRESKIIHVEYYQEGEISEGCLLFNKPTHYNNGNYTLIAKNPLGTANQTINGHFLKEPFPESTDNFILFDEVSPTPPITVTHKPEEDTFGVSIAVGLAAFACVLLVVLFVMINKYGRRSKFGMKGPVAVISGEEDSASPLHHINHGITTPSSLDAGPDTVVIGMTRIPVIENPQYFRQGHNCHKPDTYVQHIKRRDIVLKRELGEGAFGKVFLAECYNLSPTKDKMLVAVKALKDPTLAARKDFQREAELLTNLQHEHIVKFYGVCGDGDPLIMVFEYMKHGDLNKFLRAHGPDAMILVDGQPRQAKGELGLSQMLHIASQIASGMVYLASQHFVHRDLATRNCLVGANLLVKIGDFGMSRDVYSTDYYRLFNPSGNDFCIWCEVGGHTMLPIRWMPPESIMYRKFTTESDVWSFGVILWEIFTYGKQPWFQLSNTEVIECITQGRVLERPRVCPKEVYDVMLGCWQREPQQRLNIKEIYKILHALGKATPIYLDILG", "experiment": "SelectScreen kinase selectivity assay", "format": "biochemical", "procedure": "as §2"}, "PDGFRB": {"target": "T24, PDGFRB (Homo sapiens, UniProt P09619)", "T24 construct": "purchased Thermo Fisher Scientific (SelectScreen service)", "experiment": "SelectScreen kinase selectivity assay", "format": "biochemical", "procedure": "as §2"}, "PLK1": {"target": "T25, PLK1 (Homo sapiens, UniProt P53350)", "T25 construct": "purchased Thermo Fisher Scientific (SelectScreen service)", "T25 sequence (P53350 whole entry)": "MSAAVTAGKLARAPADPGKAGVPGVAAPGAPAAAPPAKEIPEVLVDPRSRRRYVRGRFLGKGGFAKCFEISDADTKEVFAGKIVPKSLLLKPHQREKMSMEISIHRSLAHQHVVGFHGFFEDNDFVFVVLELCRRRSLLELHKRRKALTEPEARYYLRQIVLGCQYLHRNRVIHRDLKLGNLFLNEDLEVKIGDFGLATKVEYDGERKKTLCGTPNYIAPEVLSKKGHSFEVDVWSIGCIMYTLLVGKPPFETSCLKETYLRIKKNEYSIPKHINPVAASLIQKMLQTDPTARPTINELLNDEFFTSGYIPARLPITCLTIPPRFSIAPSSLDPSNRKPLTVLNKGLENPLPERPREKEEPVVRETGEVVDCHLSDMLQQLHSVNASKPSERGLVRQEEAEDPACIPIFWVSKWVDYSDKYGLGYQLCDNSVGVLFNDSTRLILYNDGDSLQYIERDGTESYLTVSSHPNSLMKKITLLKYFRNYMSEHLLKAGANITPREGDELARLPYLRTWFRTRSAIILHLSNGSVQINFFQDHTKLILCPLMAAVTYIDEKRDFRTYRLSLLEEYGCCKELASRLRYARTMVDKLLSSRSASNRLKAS", "experiment": "SelectScreen kinase selectivity assay", "format": "biochemical", "procedure": "as §2"}, "PLK2": {"target": "T26, PLK2 (Homo sapiens, UniProt Q9NYY3)", "T26 construct": "purchased Thermo Fisher Scientific (SelectScreen service)", "experiment": "SelectScreen kinase selectivity assay", "format": "biochemical", "procedure": "as §2"}, "PTK2": {"target": "T27, PTK2 (Homo sapiens, UniProt Q05397)", "T27 construct": "purchased Thermo Fisher Scientific (SelectScreen service)", "experiment": "SelectScreen kinase selectivity assay", "format": "biochemical", "procedure": "as §2"}, "TYRO3": {"target": "T28, TYRO3 (Homo sapiens, UniProt Q06418)", "T28 construct": "purchased Thermo Fisher Scientific (SelectScreen service)", "experiment": "SelectScreen kinase selectivity assay", "format": "biochemical", "procedure": "as §2"}, "ZAP70": {"target": "T29, ZAP70 (Homo sapiens, UniProt P43403)", "T29 construct": "purchased Thermo Fisher Scientific (SelectScreen service)", "T29 sequence (P43403 whole entry)": "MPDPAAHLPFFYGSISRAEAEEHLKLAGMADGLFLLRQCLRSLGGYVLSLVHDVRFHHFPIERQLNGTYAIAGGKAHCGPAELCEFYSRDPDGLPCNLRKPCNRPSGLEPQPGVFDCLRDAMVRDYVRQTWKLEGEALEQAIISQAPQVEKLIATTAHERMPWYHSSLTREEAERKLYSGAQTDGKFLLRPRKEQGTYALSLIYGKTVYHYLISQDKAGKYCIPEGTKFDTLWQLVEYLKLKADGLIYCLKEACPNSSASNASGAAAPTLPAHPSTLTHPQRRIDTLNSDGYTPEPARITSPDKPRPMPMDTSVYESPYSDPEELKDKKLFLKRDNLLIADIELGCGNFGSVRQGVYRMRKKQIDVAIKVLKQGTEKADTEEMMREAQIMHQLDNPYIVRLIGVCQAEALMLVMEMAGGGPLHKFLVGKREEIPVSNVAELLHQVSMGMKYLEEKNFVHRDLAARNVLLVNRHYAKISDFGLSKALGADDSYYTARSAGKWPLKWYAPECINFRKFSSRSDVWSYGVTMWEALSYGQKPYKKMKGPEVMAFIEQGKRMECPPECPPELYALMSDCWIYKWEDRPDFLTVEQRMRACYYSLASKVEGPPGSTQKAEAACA", "experiment": "SelectScreen kinase selectivity assay", "format": "biochemical", "procedure": "as §2"}},
  "data": [
    {"smiles": "Cc1ccc(O)c(C)c1-n1c(N)c(C(N)=O)c2cc(CCCCCC(=O)NO)c(C)nc21", "note": "[PKHD-5]", "values": [
      {"measurement": "IC50", "setting": "Hep3B", "value": "0.38 ± 0.05", "unit": "µM"},
      {"measurement": "IC50", "setting": "HepG2/MDR", "value": "0.92 ± 0.05", "unit": "µM"},
      {"measurement": "IC50", "setting": "HepG2", "value": "0.19 ± 0.03", "unit": "µM"},
      {"measurement": "IC50", "setting": "Huh7", "value": "0.47 ± 0.04", "unit": "µM"},
      {"measurement": "IC50", "setting": "SNU449", "value": "0.59 ± 0.06", "unit": "µM"},
      {"measurement": "IC50", "setting": "[1]", "value": "> 100", "unit": "µM"},
      {"measurement": "IC50", "setting": "63 distinct kinases", "value": "> 50", "unit": "µM"},
      {"measurement": "IC50", "setting": "ABL1", "value": "> 50", "unit": "µM"},
      {"measurement": "IC50", "setting": "BMX", "value": "> 50", "unit": "µM"},
      {"measurement": "IC50", "setting": "DDR2", "value": "> 50", "unit": "µM"},
      {"measurement": "IC50", "setting": "EPHA5", "value": "> 50", "unit": "µM"},
      {"measurement": "IC50", "setting": "EPHA6", "value": "> 50", "unit": "µM"},
      {"measurement": "IC50", "setting": "EPHB2", "value": "> 50", "unit": "µM"},
      {"measurement": "IC50", "setting": "ERBB4", "value": "> 50", "unit": "µM"},
      {"measurement": "IC50", "setting": "FES", "value": "> 50", "unit": "µM"},
      {"measurement": "IC50", "setting": "FGFR1", "value": "> 50", "unit": "µM"},
      {"measurement": "IC50", "setting": "FGFR3", "value": "> 50", "unit": "µM"},
      {"measurement": "IC50", "setting": "FGR", "value": "> 50", "unit": "µM"},
      {"measurement": "IC50", "setting": "FYN", "value": "> 50", "unit": "µM"},
      {"measurement": "IC50", "setting": "ITK", "value": "> 50", "unit": "µM"},
      {"measurement": "IC50", "setting": "JAK1", "value": "> 50", "unit": "µM"},
      {"measurement": "IC50", "setting": "JAK2", "value": "> 50", "unit": "µM"},
      {"measurement": "IC50", "setting": "JAK3", "value": "> 50", "unit": "µM"},
      {"measurement": "IC50", "setting": "KIT", "value": "> 50", "unit": "µM"},
      {"measurement": "IC50", "setting": "LTK", "value": "> 50", "unit": "µM"},
      {"measurement": "IC50", "setting": "MET", "value": "> 50", "unit": "µM"},
      {"measurement": "IC50", "setting": "MST1R", "value": "> 50", "unit": "µM"},
      {"measurement": "IC50", "setting": "MUSK", "value": "> 50", "unit": "µM"},
      {"measurement": "IC50", "setting": "NTRK2", "value": "> 50", "unit": "µM"},
      {"measurement": "IC50", "setting": "NTRK3", "value": "> 50", "unit": "µM"},
      {"measurement": "IC50", "setting": "PDGFRB", "value": "> 50", "unit": "µM"},
      {"measurement": "IC50", "setting": "PLK1", "value": "> 50", "unit": "µM"},
      {"measurement": "IC50", "setting": "PLK2", "value": "> 50", "unit": "µM"},
      {"measurement": "IC50", "setting": "PTK2", "value": "> 50", "unit": "µM"},
      {"measurement": "IC50", "setting": "TYRO3", "value": "> 50", "unit": "µM"},
      {"measurement": "IC50", "setting": "ZAP70", "value": "> 50", "unit": "µM"}
    ]}
  ]
}
